# “And” between values parts separate entries of the source, which are not always exact repeats. Equal entries are not always repeated. Structures can show the parent of a compound that is named as a salt. Where two headings read alike, the source gives them in different places.
# Experiments:
# [1] = solvents of Table 2/3; literature, or estimated with ProPred where not available; cited from earlier work
# [2] = Azoxystrobin dissolved in organic liquid, diluted with 20 volumes of water, visual assessment of layers or crystals; format: physicochemical; conditions: water 20 times the solvent volume, assessed visually at 48 hours
# Method: Azoxystrobin was dissolved in a range of organic liquids, some of which are known to be solvents for agrochemicals, at room temperature and allowed to equilibrate. A measured quantity of water was added and each mixture was shaken. The volume of water was 20 times greater than the volume of organic liquid/solvent. After settling the samples were assessed as being either (i) split into two layers with no evidence of pesticide crystalisation, or (ii) identified as a single layer where the pesticide had precipitated out as crystals.
# Samples were assessed after 24 and 48 hours. The log P octanol values for the solvents have been taken from the literature or, where this value was not available, were estimated using the program ProPred™ (ICAS ProPred™, KT Consortium, DTU Kemiteknik, Lyngby, Denmark). Where values were estimated, a simple check was carried out using measuring cylinders with 50/50 volumes of octanol and water. Solvent was added to the cylinder until a clear observation of the effect of the addition was apparent.
# [3] = as above; format: physicochemical
# [4] = 5% w/w solutions of agrochemicals in solvent diluted into water 20:1, appearance; format: physicochemical; conditions: for APPEARANCE OF FORMULATION, Difenoconazole: 5% w/w difenoconazole in solvent; for APPEARANCE OF FORMULATION, Difenoconazole / APPEARANCE OF FORMULATION, Fludioxonil / APPEARANCE OF FORMULATION, Mandipropamid / APPEARANCE OF FORMULATION, Pinoxaden: diluted into water 20:1; for APPEARANCE OF FORMULATION, Fludioxonil: 5% w/w fludioxonil in solvent; for APPEARANCE OF FORMULATION, Mandipropamid: 5% w/w mandipropamid in solvent; for APPEARANCE OF FORMULATION, Pinoxaden: 5% w/w pinoxaden in solvent; for appearance with each of the agrochemical active ingredients: mandipropamid, fludioxonil, pinoxaden, difenoconazole, 5% w/w, diluted 20:1
# Method: In this example several pesticidally active agrochemical ingredients (mandipropamid, fludioxonil, pinoxaden, and difenoconazole) were dissolved in each of the three solvents to give solutions of 5% w/w. Each solution was then diluted into water to form a 20:1 mixture.
# [5] = log P octanol by octanol saturated chromatography column; format: physicochemical; conditions: octanol/water (octanol saturated chromatography column); 25° C., pH 6.98; read-out: octanol water partition coefficient (log P octanol)
# Source text: Samples of gamma caprolactone were examined using an octanol saturated chromatography column.
# [6] = Aqueous solubility of gamma caprolactone by HPLC; format: physicochemical; conditions: calculated mean of a set of six measurements
# Method: The aqueous solubility of gamma caprolactone was measured using HPLC chromatography. Several samples of the lactone were equilibrated at room temperature with an equal volume of water. The samples were left for two weeks then analysed by HPLC.
# [7] = 20° C.; cited from earlier work
Compound,logP octanol [1],APPEARANCE (azoxystrobin solution in solvent after addition of water) [2],other results
CC1CCC(=O)O1 (stereo not drawn) [γ-Valerolactone],0.21,Crystallised,
CCCOC(=O)c1ccccc1 [Propyl benzoate],,2 layer,
Butylene carbonate,1.21,2 layer,
CC(=O)OCC(C)OC(C)=O (stereo not drawn) [Propylene glycol diacetate],0.94,Crystallised,
"CCC1CCC(=O)O1 (stereo not drawn) [γ-Caprolactone, 5-ethyltetrahydrofuran-2-one]",,,"appearance after further 100-fold dilution in water [3]: two layers still did not become miscible; APPEARANCE OF FORMULATION, Difenoconazole [4]: 2 layers; APPEARANCE OF FORMULATION, Fludioxonil [4]: 2 layers; APPEARANCE OF FORMULATION, Mandipropamid [4]: 2 layer; APPEARANCE OF FORMULATION, Pinoxaden [4]: 2 layers; appearance with each of the agrochemical active ingredients [4]: two-layer system; chromatographic logP [5]: 0.34; Aqueous solubility, Mean [6]: 10.93 % w/w and 11.01 % w/w"
CCCCCCOCCOCCO [Diethylene glycol hexyl ether],2.16,2 layer,
OCc1ccccc1 [Benzyl alcohol],,2 layer,
Diethylene carbonate,,,APPEARANCE (azoxystrobin solution in solvent after addition of water) [3]: 2 layer
COC(C)COC(C)CO (stereo not drawn) [Dipropylene glycol monomethyl ether],,Crystallised,
Hexylene glycol,,Crystallised,"miscibility with water [7]: fully miscible; APPEARANCE OF FORMULATION, Difenoconazole [4]: Crystallised; APPEARANCE OF FORMULATION, Fludioxonil [4]: Crystallised; APPEARANCE OF FORMULATION, Mandipropamid [4]: Crystallised; APPEARANCE OF FORMULATION, Pinoxaden [4]: Crystallised; appearance with each of the agrochemical active ingredients [4]: crystallisation"
O=C1CCCCCO1 [ε-Caprolactone],0.70,Crystallised,
CCOP(=O)(OCC)OCC [Triethyl phosphate],0.28,Crystallised,
CCCCOCC(C)O (stereo not drawn) [Propylene glycol n-butyl ether],,2 layer,
OC1CCCCC1 [Cyclohexanol],,2 layer,
CC(O)C(=O)N(C)C (stereo not drawn) [Dimethyl lactamide],−0.22,Crystallised,
COC(=O)C(C)O (stereo not drawn) [Methyl lactate],,Crystallised,
O=C1CCCCO1 [δ-Valerolactone],−0.26,Crystallised,
CCCOC(=O)C(C)O (stereo not drawn) [Propyl lactate],,2 layer,
CC(=O)OCC(COC(C)=O)OC(C)=O [Triacetin],,2 layer,
COC(=O)c1ccccc1 [Methyl benzoate],1.85,2 layer,
CCOC(=O)/C=C/C(=O)OCC [Diethyl fumarate],,2 layer,
O=C1CCCO1 [γ-Butyrolactone],−0.60,Crystallised,
CC(=O)c1ccccc1 [Acetophenone],,2 layer,
CCCCOC(=O)c1ccccc1 [Butyl benzoate],,2 layer,
OCCO [Ethylene glycol],,,APPEARANCE (azoxystrobin solution in solvent after addition of water) [3]: Crystallised
